Measured values: patent US20060140857A1, “Method of the administration of drugs with binding affinity for plasma protein and preparation to be used in the method” (NIHON MEDI-PHYSICS CO., LTD., priority 1999, published 2006)

Legend:
[1] = Biodistribution of 123I-IMP in rat with verapamil loading; settings: rats
Description: The rats were decapitated at 2, 5, 10, 30 and 60 minutes after administration. Then the blood was sampled and the organs of interest were excised. After measured the weight of these specimens, the radioactivities of the blood and organs were measured. After half-life of the radioactivities were corrected, the accumulation rate (% dose/g of the tissue) was obtained.

[2] = Free fraction of 123I-IMP in the blood of rats with verapamil loading; type: in vivo, rat
Description: Under the same conditions as mentioned above concerning the constitution of control and testing group, timings of decapitation, and dose of drugs, administrations of the drugs and decapitations of rats were conducted, and 3-5 ml of blood per one rat was sampled.

[3] = tested on: human plasma protein; assay: Displacement of 123I-IMP binding to human plasma protein; settings: human serum, control without second drug
[4] = loaded with verapamil about 10 mg/kg, 2 Minutes
[5] = loaded with verapamil about 10 mg/kg, 5 Minutes
[6] = loaded with verapamil about 10 mg/kg, 10 Minutes
[7] = loaded with verapamil about 10 mg/kg, 30 Minutes
[8] = loaded with verapamil about 10 mg/kg, 60 Minutes

In the case of `CC(C)NC(C)Cc1ccc(I)cc1` (centres unmarked) [123I-IMP, N-isopropyl-p-iodoamphetamine], the “Biodistribution of 123I-IMP, Blood” value ([1]; control group, 2 Minutes) is reported as 0.198 ± 0.052 % Dose/g Tissue, the “Biodistribution of 123I-IMP, Brain” value ([1]; control group, 2 Minutes) is reported as 1.800 ± 0.418 % Dose/g Tissue and the “Biodistribution of 123I-IMP, Heart” value ([1]; control group, 2 Minutes) is reported as 1.949 ± 0.293 % Dose/g Tissue. The “Biodistribution of 123I-IMP, Kidney” value ([1]; control group, 2 Minutes) was 3.406 ± 0.905 % Dose/g Tissue, the “Biodistribution of 123I-IMP, Liver” value ([1]; control group, 2 Minutes) was 0.506 ± 0.109 % Dose/g Tissue and the “Biodistribution of 123I-IMP, Lung” value ([1]; control group, 2 Minutes) was 11.236 ± 0.780 % Dose/g Tissue. For the same molecule, the “Biodistribution of 123I-IMP, Pancreas” value ([1]; control group, 2 Minutes) was 1.503 ± 0.353 % Dose/g Tissue, the “Biodistribution of 123I-IMP, Spleen” value ([1]; control group, 2 Minutes) was 0.880 ± 0.216 % Dose/g Tissue and the “Biodistribution of 123I-IMP, Stomach” value ([1]; control group, 2 Minutes) was 0.302 ± 0.065 % Dose/g Tissue. For the same molecule, the “Biodistribution of 123I-IMP, Blood” value ([1]; control group, 5 Minutes) was 0.133 ± 0.005 % Dose/g Tissue, the “Biodistribution of 123I-IMP, Brain” value ([1]; control group, 5 Minutes) was 1.476 ± 0.225 % Dose/g Tissue and the “Biodistribution of 123I-IMP, Heart” value ([1]; control group, 5 Minutes) was 1.014 ± 0.070 % Dose/g Tissue. The “Biodistribution of 123I-IMP, Kidney” value ([1]; control group, 5 Minutes) was 2.285 ± 0.256 % Dose/g Tissue, the “Biodistribution of 123I-IMP, Liver” value ([1]; control group, 5 Minutes) was 0.699 ± 0.061 % Dose/g Tissue and the “Biodistribution of 123I-IMP, Lung” value ([1]; control group, 5 Minutes) was 9.000 ± 0.600 % Dose/g Tissue. For the same molecule, the “Biodistribution of 123I-IMP, Pancreas” value ([1]; control group, 5 Minutes) was 1.923 ± 0.445 % Dose/g Tissue, the “Biodistribution of 123I-IMP, Spleen” value ([1]; control group, 5 Minutes) was 0.999 ± 0.355 % Dose/g Tissue and the “Biodistribution of 123I-IMP, Stomach” value ([1]; control group, 5 Minutes) was 0.500 ± 0.078 % Dose/g Tissue. For the same molecule, the “Biodistribution of 123I-IMP, Blood” value ([1]; control group, 10 Minutes) was 0.116 ± 0.011 % Dose/g Tissue, the “Biodistribution of 123I-IMP, Brain” value ([1]; control group, 10 Minutes) was 1.006 ± 0.379 % Dose/g Tissue and the “Biodistribution of 123I-IMP, Heart” value ([1]; control group, 10 Minutes) was 0.631 ± 0.111 % Dose/g Tissue. The “Biodistribution of 123I-IMP, Kidney” value ([1]; control group, 10 Minutes) was 1.303 ± 0.190 % Dose/g Tissue, the “Biodistribution of 123I-IMP, Liver” value ([1]; control group, 10 Minutes) was 0.711 ± 0.143 % Dose/g Tissue and the “Biodistribution of 123I-IMP, Lung” value ([1]; control group, 10 Minutes) was 6.279 ± 1.026 % Dose/g Tissue. For the same molecule, the “Biodistribution of 123I-IMP, Pancreas” value ([1]; control group, 10 Minutes) was 1.721 ± 0.217 % Dose/g Tissue, the “Biodistribution of 123I-IMP, Spleen” value ([1]; control group, 10 Minutes) was 1.008 ± 0.074 % Dose/g Tissue and the “Biodistribution of 123I-IMP, Stomach” value ([1]; control group, 10 Minutes) was 0.407 ± 0.230 % Dose/g Tissue. The “Biodistribution of 123I-IMP, Blood” value ([1]; control group, 30 Minutes) was 0.136 ± 0.028 % Dose/g Tissue, the “Biodistribution of 123I-IMP, Brain” value ([1]; control group, 30 Minutes) was 1.346 ± 0.345 % Dose/g Tissue and the “Biodistribution of 123I-IMP, Heart” value ([1]; control group, 30 Minutes) was 0.524 ± 0.037 % Dose/g Tissue. For the same molecule, the “Biodistribution of 123I-IMP, Kidney” value ([1]; control group, 30 Minutes) was 1.359 ± 0.222 % Dose/g Tissue, the “Biodistribution of 123I-IMP, Liver” value ([1]; control group, 30 Minutes) was 1.192 ± 0.536 % Dose/g Tissue and the “Biodistribution of 123I-IMP, Lung” value ([1]; control group, 30 Minutes) was 5.209 ± 1.446 % Dose/g Tissue. For the same molecule, the “Biodistribution of 123I-IMP, Pancreas” value ([1]; control group, 30 Minutes) was 2.032 ± 0.505 % Dose/g Tissue, the “Biodistribution of 123I-IMP, Spleen” value ([1]; control group, 30 Minutes) was 1.356 ± 0.277 % Dose/g Tissue and the “Biodistribution of 123I-IMP, Stomach” value ([1]; control group, 30 Minutes) was 0.885 ± 0.366 % Dose/g Tissue. For the same molecule, the “Biodistribution of 123I-IMP, Blood” value ([1]; control group, 60 Minutes) was 0.181 ± 0.006 % Dose/g Tissue, the “Biodistribution of 123I-IMP, Brain” value ([1]; control group, 60 Minutes) was 1.511 ± 0.011 % Dose/g Tissue and the “Biodistribution of 123I-IMP, Heart” value ([1]; control group, 60 Minutes) was 0.540 ± 0.026 % Dose/g Tissue. The “Biodistribution of 123I-IMP, Kidney” value ([1]; control group, 60 Minutes) was 1.585 ± 0.132 % Dose/g Tissue, the “Biodistribution of 123I-IMP, Liver” value ([1]; control group, 60 Minutes) was 1.442 ± 0.164 % Dose/g Tissue and the “Biodistribution of 123I-IMP, Lung” value ([1]; control group, 60 Minutes) was 5.186 ± 0.616 % Dose/g Tissue. For the same molecule, the “Biodistribution of 123I-IMP, Pancreas” value ([1]; control group, 60 Minutes) was 1.957 ± 0.345 % Dose/g Tissue, the “Biodistribution of 123I-IMP, Spleen” value ([1]; control group, 60 Minutes) was 1.290 ± 0.138 % Dose/g Tissue and the “Biodistribution of 123I-IMP, Stomach” value ([1]; control group, 60 Minutes) was 1.245 ± 0.343 % Dose/g Tissue. For the same molecule, the “Biodistribution of 123I-IMP, Blood” value [1, 4] was 0.238 ± 0.083 % Dose/g Tissue, the “Biodistribution of 123I-IMP, Brain” value [1, 4] was 1.584 ± 0.425 % Dose/g Tissue and the “Biodistribution of 123I-IMP, Heart” value [1, 4] was 3.769 ± 0.911 % Dose/g Tissue. The “Biodistribution of 123I-IMP, Kidney” value [1, 4] was 1.424 ± 0.313 % Dose/g Tissue, the “Biodistribution of 123I-IMP, Liver” value [1, 4] was 0.287 ± 0.156 % Dose/g Tissue and the “Biodistribution of 123I-IMP, Lung” value [1, 4] was 9.234 ± 1.748 % Dose/g Tissue. The “Biodistribution of 123I-IMP, Pancreas” value [1, 4] was 1.268 ± 0.375 % Dose/g Tissue, the “Biodistribution of 123I-IMP, Spleen” value [1, 4] was 0.052 ± 0.025 % Dose/g Tissue and the “Biodistribution of 123I-IMP, Stomach” value [1, 4] was 0.234 ± 0.111 % Dose/g Tissue. The “Biodistribution of 123I-IMP, Blood” value [1, 5] was 0.228 ± 0.012 % Dose/g Tissue, the “Biodistribution of 123I-IMP, Brain” value [1, 5] was 1.916 ± 0.131 % Dose/g Tissue and the “Biodistribution of 123I-IMP, Heart” value [1, 5] was 2.260 ± 0.680 % Dose/g Tissue. The “Biodistribution of 123I-IMP, Kidney” value [1, 5] was 1.278 ± 0.381 % Dose/g Tissue, the “Biodistribution of 123I-IMP, Liver” value [1, 5] was 0.350 ± 0.130 % Dose/g Tissue and the “Biodistribution of 123I-IMP, Lung” value [1, 5] was 8.377 ± 0.563 % Dose/g Tissue. The “Biodistribution of 123I-IMP, Pancreas” value [1, 5] was 1.659 ± 0.496 % Dose/g Tissue, the “Biodistribution of 123I-IMP, Spleen” value [1, 5] was 0.063 ± 0.250 % Dose/g Tissue and the “Biodistribution of 123I-IMP, Stomach” value [1, 5] was 0.164 ± 0.078 % Dose/g Tissue. For the same molecule, the “Biodistribution of 123I-IMP, Blood” value [1, 6] was 0.139 ± 0.003 % Dose/g Tissue, the “Biodistribution of 123I-IMP, Brain” value [1, 6] was 2.145 ± 0.410 % Dose/g Tissue and the “Biodistribution of 123I-IMP, Heart” value [1, 6] was 1.247 ± 0.209 % Dose/g Tissue. For the same molecule, the “Biodistribution of 123I-IMP, Kidney” value [1, 6] was 1.766 ± 0.678 % Dose/g Tissue, the “Biodistribution of 123I-IMP, Liver” value [1, 6] was 0.688 ± 0.237 % Dose/g Tissue and the “Biodistribution of 123I-IMP, Lung” value [1, 6] was 6.947 ± 1.486 % Dose/g Tissue. For the same molecule, the “Biodistribution of 123I-IMP, Pancreas” value [1, 6] was 1.911 ± 0.685 % Dose/g Tissue, the “Biodistribution of 123I-IMP, Spleen” value [1, 6] was 0.213 ± 0.118 % Dose/g Tissue and the “Biodistribution of 123I-IMP, Stomach” value [1, 6] was 0.377 ± 0.013 % Dose/g Tissue. The “Biodistribution of 123I-IMP, Blood” value [1, 7] was 0.098 ± 0.044 % Dose/g Tissue, the “Biodistribution of 123I-IMP, Brain” value [1, 7] was 1.529 ± 0.811 % Dose/g Tissue and the “Biodistribution of 123I-IMP, Heart” value [1, 7] was 0.471 ± 0.209 % Dose/g Tissue. The “Biodistribution of 123I-IMP, Kidney” value [1, 7] was 1.231 ± 0.632 % Dose/g Tissue, the “Biodistribution of 123I-IMP, Liver” value [1, 7] was 1.185 ± 0.751 % Dose/g Tissue and the “Biodistribution of 123I-IMP, Lung” value [1, 7] was 3.890 ± 2.223 % Dose/g Tissue. For the same molecule, the “Biodistribution of 123I-IMP, Pancreas” value [1, 7] was 1.877 ± 0.886 % Dose/g Tissue, the “Biodistribution of 123I-IMP, Spleen” value [1, 7] was 0.886 ± 0.319 % Dose/g Tissue and the “Biodistribution of 123I-IMP, Stomach” value [1, 7] was 0.782 ± 0.621 % Dose/g Tissue. For the same molecule, the “Biodistribution of 123I-IMP, Blood” value [1, 8] was 0.110 ± 0.002 % Dose/g Tissue, the “Biodistribution of 123I-IMP, Brain” value [1, 8] was 1.449 ± 0.281 % Dose/g Tissue and the “Biodistribution of 123I-IMP, Heart” value [1, 8] was 0.456 ± 0.039 % Dose/g Tissue. For the same molecule, the “Biodistribution of 123I-IMP, Kidney” value [1, 8] was 1.242 ± 0.146 % Dose/g Tissue, the “Biodistribution of 123I-IMP, Liver” value [1, 8] was 1.639 ± 0.051 % Dose/g Tissue and the “Biodistribution of 123I-IMP, Lung” value [1, 8] was 4.133 ± 0.079 % Dose/g Tissue. The “Biodistribution of 123I-IMP, Pancreas” value [1, 8] was 1.478 ± 0.161 % Dose/g Tissue, the “Biodistribution of 123I-IMP, Spleen” value [1, 8] was 1.193 ± 0.129 % Dose/g Tissue and the “Biodistribution of 123I-IMP, Stomach” value [1, 8] was 1.058 ± 0.126 % Dose/g Tissue. For the same molecule, the “Free fraction (%) of 123I-IMP in the blood of rats” value (shortened to “Free fraction (%) of 123I-IMP”) ([2]; control group, 2 Minutes) was 56.75 ± 9.21%, the “Free fraction (%) of 123I-IMP” value ([2]; control group, 5 Minutes) was 50.70 ± 10.37% and the “Free fraction (%) of 123I-IMP” value ([2]; control group, 10 Minutes) was 45.91 ± 3.12%. The “Free fraction (%) of 123I-IMP” value ([2]; control group, 30 Minutes) was 27.29 ± 4.85%, the “Free fraction (%) of 123I-IMP” value ([2]; control group, 60 Minutes) was 16.77 ± 4.11% and the “Free fraction (%) of 123I-IMP” value ([2]; test group with verapamil loading, 2 Minutes) was 52.40 ± 6.00%. The “Free fraction (%) of 123I-IMP” value ([2]; test group with verapamil loading, 5 Minutes) was 56.52 ± 4.38%, the “Free fraction (%) of 123I-IMP” value ([2]; test group with verapamil loading, 10 Minutes) was 66.86 ± 6.34% and the “Free fraction (%) of 123I-IMP” value ([2]; test group with verapamil loading, 30 Minutes) was 38.03 ± 6.69%. The “Free fraction (%) of 123I-IMP” value ([2]; test group with verapamil loading, 60 Minutes) was 31.86 ± 8.23% and the “free of fraction of 123I-IMP (%)” value [3] was 29.29%.
